Laboratory results reported in patent US20110201642A1, “Bioactive Compounds” (priority 2008, published 2011).
Where two headings read alike, the source gives them in different places.

Key:
Type in all cases: cell-based
[1] = tested on: MCF7 (ATCC HTB-22) human breast cancer cell line; assay: MTT cytotoxic assay against MCF7 (96 h); settings: for IC50: Homo sapiens, MCF7, 96 h
Experimental: (§1) Human breast cancer, MCF7 (ATCC HTB-22) and human colon cancer, HCT116 (ATCC CCL-247) cell lines were all maintained in RPMI 1640 (Sigma), supplemented with 10% Foetal Bovine Serum (FBS, PAA Laboratories). Cells of 80-85% confluence were harvested and plated onto 96-flat bottom well plates for experimental use. In all experiments, cells were incubated in a CO2 incubator at 37° C. with 5% CO2 overnight prior to treatment.
(§2) Compounds were tested against MCF7 and HCT116 and incubated for 96 h before cytotoxic assay using the MTT (3-(4,5-dimethylthiazole-2-yl)-2,5-diphenyltetrazolium bromide) assay according to Mosmann (J. Immunol Meth. 65 (1983) 55-63). Plates were read using an Elisa plate reader at 520 nm. Data generated was used to plot a dose response curve. Cytotoxic activity was expressed as the mean concentration of extract required to kill 50% of the cell population (IC50).

[2] = tested on: HCT116 (ATCC CCL-247) human colon cancer cell line; assay: MTT cytotoxic assay against HCT116 (96 h)
Experimental: as §1, §2

[3] = tested on: P388 murine leukemia cell line; assay: Cytotoxicity against P388 murine leukemia cell line; settings: for IC50: Mus musculus, P388 murine leukemia
Experimental: The Compounds A1-A5 were assayed against three cell lines: murine leukemia, P388; human breast cancer, MCF7 (ATCC HTB-22); and human colon cancer, HCT116 (ATCC CCL-247).

[4] = Homo sapiens, HCT-116, 96 h, read-out: IC50 (nM) HCT116
[5] = Homo sapiens, HCT-116, 96 h, read-out: IC50 (ng/mL) HCT116

Structure (SMILES): C=CC(C)CC1NC(=O)C(C(O)C(C)C)N(C)C(=O)C(C)N(C)C(=O)C(C(C)CC)NC(=O)C(C(O)C(C)C)NC(=O)C2CCCCN2C(=O)C(C)N(C)C1=O (stereo not shown) [Compound A3]
- IC50 ([1]; read-out: IC50 (nM) MCF7): 0.9 nM
- IC50 ([1]; read-out: IC50 (ng/mL) MCF7): 0.73 ng/mL
- IC50 [2, 4]: 0.3 nM
- IC50 [2, 5]: 0.2 ng/mL
- IC50 ([3]; read-out: IC50 (nM) P388): 1.3 nM
- IC50 ([3]; read-out: IC50 (ng/mL) P388): 1 ng/mL

Structure (SMILES): N.N.[Cl][Pt][Cl] [cisplatin, reference compound]
- IC50 (ng/mL) MCF7 ([1]; MCF7 human breast cancer, MTT, 96 h): 8705 ng/mL
- IC50 (ng/mL) HCT116 ([2]; HCT116 human colon cancer, MTT, 96 h): 1650 ng/mL

Structure (SMILES): C=CC(C)CC1NC(=O)C(C(O)C(C)C)N(C)C(=O)C(C)N(C)C(=O)C(C(C)C)NC(=O)C(C(O)C(C)C)NC(=O)C2CCCCN2C(=O)C(C)N(C)C1=O (stereo not shown) [Compound A1]
- IC50 ([1]; read-out: IC50 (nM) MCF7): 8.1 nM
- IC50 ([1]; read-out: IC50 (ng/mL) MCF7): 6.5 ng/mL
- IC50 [2, 4]: 5.9 nM
- IC50 [2, 5]: 4.7 ng/mL
- IC50 ([3]; read-out: IC50 (nM) P388): 3.8 nM
- IC50 ([3]; read-out: IC50 (ng/mL) P388): 3 ng/mL

Structure (SMILES): CCC(C)CC1NC(=O)C(C(O)C(C)C)N(C)C(=O)C(C)N(C)C(=O)C(C(C)CC)NC(=O)C(C(O)C(C)C)NC(=O)C2CCCCN2C(=O)C(C)N(C)C1=O (stereo not shown) [Compound A4]
- IC50 ([1]; read-out: IC50 (nM) MCF7): 7.1 nM
- IC50 ([1]; read-out: IC50 (ng/mL) MCF7): 5.7 ng/mL
- IC50 [2, 4]: 3.9 nM
- IC50 [2, 5]: 3.1 ng/mL
- IC50 ([3]; read-out: IC50 (nM) P388): 24 nM
- IC50 ([3]; read-out: IC50 (ng/mL) P388): 19 ng/mL

Structure (SMILES): O=c1[nH]cc(F)c(=O)[nH]1 [5-fluorouracil, reference compound]
- IC50 ([2]; HCT-116, HCT116 human colon cancer, MTT, 96 h, read-out: IC50 (ng/mL) HCT116): 910 ng/mL

Structure (SMILES): C=CC(C)CC1NC(=O)C(C(O)C(C)CC)N(C)C(=O)C(C)N(C)C(=O)C(C(C)CC)NC(=O)C(C(O)C(C)C)NC(=O)C2CCCCN2C(=O)C(C)N(C)C1=O (stereo not shown) [Compound A5]
- IC50 ([1]; read-out: IC50 (nM) MCF7): 1 nM
- IC50 ([1]; read-out: IC50 (ng/mL) MCF7): 0.8 ng/mL
- IC50 [2, 4]: 0.3 nM
- IC50 [2, 5]: 0.2 ng/mL
- IC50 ([3]; read-out: IC50 (nM) P388): 0.13 nM
- IC50 ([3]; read-out: IC50 (ng/mL) P388): 0.1 ng/mL
- factor between the least active, Compound A2, and the most active, Compound A5 ([3]; P388 data): ~450

Structure (SMILES): CCC(C)C1NC(=O)C(C(O)C(C)C)NC(=O)C2CCCCN2C(=O)C(C)N(C)C(=O)C(CC(C)C)NC(=O)C(C(O)C(C)C)N(C)C(=O)C(C)N(C)C1=O (stereo not shown) [Compound A2]
- IC50 ([1]; read-out: IC50 (nM) MCF7): 8.3 nM
- IC50 ([1]; read-out: IC50 (ng/mL) MCF7): 6.6 ng/mL
- IC50 [2, 4]: 11.6 nM
- IC50 [2, 5]: 9.3 ng/mL
- IC50 ([3]; read-out: IC50 (nM) P388): 56 nM
- IC50 ([3]; read-out: IC50 (ng/mL) P388): 45 ng/mL
